{"source": "patent US20220024921A1", "about": "“1,3,4-OXADIAZOLONE COMPOUND AND PHARMACEUTICAL” (NIPPON SHINYAKU CO., LTD., priority 2018, published 2022)", "key": {"[1]": {"system": "graft-versus-host disease model CB6F1 mice", "test": "Lymphocyte proliferation inhibitory effect using graft-versus-host disease model animals (splenomegaly formation)", "format": "in vivo", "conditions": "Mus musculus, 240 h, oral, twice a day for 10 days, GVHD model CB6F1 mice, read-out: Inhibition rate (%) (splenomegaly formation); for inhibition in vivo at 20 mg/kg: single dose 20 mg/kg"}, "[2]": {"target": "PIM1 transgenic cells (Ba/F3) (Homo sapiens, UniProt P11309)", "sequence (P11309 whole entry, change not shown)": "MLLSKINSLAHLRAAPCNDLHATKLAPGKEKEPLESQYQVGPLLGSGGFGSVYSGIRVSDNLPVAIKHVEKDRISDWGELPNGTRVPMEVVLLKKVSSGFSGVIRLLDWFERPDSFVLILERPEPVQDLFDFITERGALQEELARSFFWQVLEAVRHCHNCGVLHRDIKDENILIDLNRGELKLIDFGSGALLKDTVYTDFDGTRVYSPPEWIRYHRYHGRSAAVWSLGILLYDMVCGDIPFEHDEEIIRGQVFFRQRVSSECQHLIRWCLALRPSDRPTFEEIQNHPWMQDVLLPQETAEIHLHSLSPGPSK", "test": "Proliferation inhibitory effect on PIM1 transgenic cells", "format": "cell-based, mouse", "conditions": "proliferation inhibition, 72 hours, Cell Counting Kit-8, read-out: PIM1 IC50", "how_it_was_run": "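Mouse Ba/F3 pro-B cells were retrovirally transduced with human PIM1 so that their proliferation depends on PIM1. Cells were treated with compound at 1–10000 nM final for 72 h, then read by CCK-8 (OD450−OD650). Inhibition was set against DMSO (0%) and no-cell blank (100%), and IC50 was obtained by two-parameter logistic regression.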"}, "NZB/W F1 mice": {"system": "NZB/W F1 mice", "test": "Inhibitory effect on systemic lupus erythematosus and lupus nephritis model animals", "format": "in vivo", "conditions": "for survival rate / onset rate of proteinuria / anti-double-stranded DNA antibody titer: NZB/W F1 mice, 15, 30 mg per 1 kg twice a day for 15 weeks; for onset rate of proteinuria: UACR>20 = proteinuria-positive; for anti-double-stranded DNA antibody titer / Anti-double-stranded DNA antibody titer (U/mL): plasma, final day of administration; for Number of proteinuria-positive individuals: UACR>20 defined as positive; for Anti-double-stranded DNA antibody titer (U/mL): median of group; for Number of dead/euthanized individuals: until the final day of administration", "source_text": "For the evaluation of test substances, NZB/W F1 mice (29, 30-week-aged female), which are model mice with systemic lupus erythematosus and lupus nephritis, were used. These mice are a spontaneous animal model, and an increase in autoantibodies such as anti-double-stranded DNA antibody, which is considered to be a cause of systemic lupus erythematosus, and proteinuria, which is a characteristic of lupus nephritis, are observed for the mice, and the mice are known to die from nephritis.\nUrine was collected before the start of the test, and individuals with a urinary albumin concentration÷urinary creatinine concentration (UACR) value of 5 or more were excluded. Furthermore, the anti-double-stranded DNA antibody titer in blood and the body weight were measured before the start of the test, and 53 mice were grouped into 5 groups of 10 or 13 mice based on blood anti-double-stranded DNA antibody titer, age, and body weight. Since early death was expected for the vehicle-administered group, the test was conducted with 13 mice as this group.\nExample 75 and Example 202 were used as test substances, and a 0.5% methyl cellulose solution which is a vehicle was used as a control. Example 75 and Example 202 were prepared into solutions of 1.5 and 3.0 mg/mL by being dissolved in a 0.5% methyl cellulose solution.\nAfter grouping, the 0.5% methyl cellulose solution or the 1.5 or 3.0 mg/mL solution of Example 75 or Example 202 was administered to each of the mice of the 7 groups. The single dose was set to 10 mL per 1 kg of body weight, and the dose was administered twice a day. Under these conditions, the dose per time is 15, 30 mg per 1 kg of body weight. Administration was started on 29 or 30-week-aged mice, and was performed daily for 15 weeks until the age of 44 or 45 weeks.\nBlood was collected from the tail vein of each of all the surviving individuals on the final day of administration. Then, the blood was centrifuged and the plasma was separated and taken. The plasma was diluted 3000-fold, and the anti-double-stranded DNA antibody titer was measured by ELISA method (Levis anti-dsDNA-mouse ELISA Kit, FUJIFILM Wako Shibayagi Corporation). Measurement and analysis were performed according to the protocol of the Kit.\nAll the surviving individuals on the final day of administration were bred in a mouse metabolism cage (CLEA Japan, Inc.) for 16 hours, and urine was collected from each individual. The solids were removed by centrifuging the urine and collecting the supernatant. An automatic analyzer (JCA-BM6050 BioMajesty, JEOL Ltd.) was used to measure the albumin concentration and creatinine concentration in urine after centrifugation. A urinary albumin/creatinine ratio (UACR) was calculated by dividing the albumin concentration by the creatinine concentration, and individuals with UACR>20 were defined as proteinuria-positive individuals. In addition, for almost all the individuals that died before the final day of administration, UACR>20 was confirmed in urinalysis immediately before death, and thus these individuals were treated as proteinuria-positive individuals."}, "[3]": {"conditions": "single dose 15 mg/kg twice a day for 15 weeks"}, "[4]": {"conditions": "single dose 30 mg/kg twice a day for 15 weeks"}}}
{"smiles": "C[C@H](Nc1cc(-c2n[nH]c(=O)o2)cc(F)c1C(F)(F)F)C1CCNCC1.Cl", "note": "[Example 75, 5-[3-fluoro-5-{[(1S)-1-(piperidin-4-yl)ethyl]amino}-4-(trifluoromethyl)phenyl]-1,3,4-oxadiazol-2(3H)-one hydrochloride]", "values": [{"measurement": "inhibition in vivo at 6 mg/kg", "setting": "[1]; single dose 6 mg/kg", "value": 21.7, "unit": "%"}, {"measurement": "inhibition in vivo at 20 mg/kg", "setting": "[1]", "value": 27.1, "unit": "%"}, {"measurement": "GI50", "setting": "[2]", "value": 24, "unit": "nM"}, {"measurement": "survival rate", "setting": "NZB/W F1 mice", "value": "improving the survival rate"}, {"measurement": "onset rate of proteinuria", "setting": "NZB/W F1 mice", "value": "decreasing the onset rate of proteinuria"}, {"measurement": "anti-double-stranded DNA antibody titer", "setting": "NZB/W F1 mice", "value": "suppressing an increase in anti-double-stranded DNA antibody titer"}, {"measurement": "Number of proteinuria-positive individuals", "setting": "NZB/W F1 mice; [3]", "value": "2/10"}, {"measurement": "Anti-double-stranded DNA antibody titer (U/mL)", "setting": "NZB/W F1 mice; [3]", "value": 423, "unit": "U/mL"}, {"measurement": "Number of dead/euthanized individuals", "setting": "NZB/W F1 mice; [3]", "value": "0/10"}, {"measurement": "Number of proteinuria-positive individuals", "setting": "NZB/W F1 mice; [4]", "value": "0/10"}, {"measurement": "Anti-double-stranded DNA antibody titer (U/mL)", "setting": "NZB/W F1 mice; [4]", "value": 306, "unit": "U/mL"}, {"measurement": "Number of dead/euthanized individuals", "setting": "NZB/W F1 mice; [4]", "value": "0/10"}]}
{"smiles": "C[C@H](Nc1cc(-c2n[nH]c(=O)o2)cc(F)c1OC(F)(F)F)C1CCNCC1.Cl", "note": "[Example 202, 5-[3-fluoro-5-{[(1S)-1-(piperidin-4-yl)ethyl]amino}-4-(trifluoromethoxy)phenyl]-1,3,4-oxadiazol-2(3H)-one hydrochloride]", "values": [{"measurement": "inhibition in vivo at 10 mg/kg", "setting": "[1]; single dose 10 mg/kg", "value": 28.4, "unit": "%"}, {"measurement": "inhibition in vivo at 20 mg/kg", "setting": "[1]", "value": 33.5, "unit": "%"}, {"measurement": "GI50", "setting": "[2]", "value": 26, "unit": "nM"}, {"measurement": "survival rate", "setting": "NZB/W F1 mice", "value": "improving the survival rate"}, {"measurement": "onset rate of proteinuria", "setting": "NZB/W F1 mice", "value": "decreasing the onset rate of proteinuria"}, {"measurement": "anti-double-stranded DNA antibody titer", "setting": "NZB/W F1 mice", "value": "suppressing an increase in anti-double-stranded DNA antibody titer"}, {"measurement": "Number of proteinuria-positive individuals", "setting": "NZB/W F1 mice; [3]", "value": "1/10"}, {"measurement": "Anti-double-stranded DNA antibody titer (U/mL)", "setting": "NZB/W F1 mice; [3]", "value": 568, "unit": "U/mL"}, {"measurement": "Number of dead/euthanized individuals", "setting": "NZB/W F1 mice; [3]", "value": "1/10"}, {"measurement": "Number of proteinuria-positive individuals", "setting": "NZB/W F1 mice; [4]", "value": "1/10"}, {"measurement": "Anti-double-stranded DNA antibody titer (U/mL)", "setting": "NZB/W F1 mice; [4]", "value": 112, "unit": "U/mL"}, {"measurement": "Number of dead/euthanized individuals", "setting": "NZB/W F1 mice; [4]", "value": "1/10"}]}
